Experimental data as given in patent US7109193B2, “Tricyclic diazepines tocolytic oxytocin receptor antagonists” (Wyeth, priority 2001, dated 2006).

Target: T1, human vasopressin V1a receptor subtype (Homo sapiens, UniProt P37288)
T1 construct: host or cells: CHO cells (pZeoSV vector for the Thibonnier line)
Experiment: Vasopressin binding in Chinese Hamster Ovary cell membranes expressing human vasopressin V1a subtype receptors
Settings: CHO cell membranes, [3H]Manning ligand; for IC50: values in parentheses; for inhibition at 0.1 µM: 100 nM, values without parentheses
Method in brief: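 Membranes from CHO cells expressing human V1a receptor were incubated with [3H]Manning ligand (added as 20 μL of 8 nM) in pH 7.4 Tris buffer with MgCl2, BSA and protease inhibitors, 60 min at room temperature. Bound radioactivity was counted after filtration; values are percent inhibition at a stated concentration or IC50.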

T1 sequence (P37288 whole entry): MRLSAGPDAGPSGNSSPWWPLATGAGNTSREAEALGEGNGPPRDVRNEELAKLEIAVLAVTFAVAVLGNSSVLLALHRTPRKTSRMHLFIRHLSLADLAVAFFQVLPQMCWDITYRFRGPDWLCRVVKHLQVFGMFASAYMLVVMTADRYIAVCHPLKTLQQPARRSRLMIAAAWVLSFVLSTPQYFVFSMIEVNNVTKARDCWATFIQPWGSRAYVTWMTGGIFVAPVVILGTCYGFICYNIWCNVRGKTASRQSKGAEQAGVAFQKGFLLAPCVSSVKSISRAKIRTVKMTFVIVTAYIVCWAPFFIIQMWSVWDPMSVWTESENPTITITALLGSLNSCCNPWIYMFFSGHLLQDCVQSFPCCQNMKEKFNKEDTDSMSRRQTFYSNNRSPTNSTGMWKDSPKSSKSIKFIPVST

Compound: COc1ccccc1-c1ccc(C(=O)N2Cc3ccc(C(=O)N4CCCN(C)CC4)n3Cc3ccccc32)cc1 [Example 61, {10-[(2′-Methoxy[1,1′-biphenyl]-4-yl)carbonyl]-10,11-dihydro-5H-pyrrolo[2,1-c][1,4]benzodiazepin-3-yl}(4-methyl-1,4-diazepan-1-yl)methanone]
- IC50: 316 nM

Compound: Cc1cc(C(=O)N2Cc3ccc(C(=O)N(C)CCCN(C)C)n3Cc3ccccc32)ccc1-c1ccccc1C(F)(F)F [Example 97, N-[3-(Dimethylamino)propyl]-N-methyl-10-{[2-methyl-2′-(trifluoromethyl)[1,1′-biphenyl]-4-yl]carbonyl}-10,11-dihydro-5H-pyrrolo[2,1-c][1,4]benzodiazepine-3-carboxamide]
- IC50: 1090 nM

Compound: COc1cc(-c2ccccc2C(F)(F)F)c(OC)cc1C(=O)N1Cc2cccn2Cc2ccccc21 [Example 32, 10-{[3,6-Dimethoxy-2′-trifluoromethyl-[1,1′-biphenyl]-4-yl]carbonyl}-10,11-dihydro-5H-pyrrolo[2,1-c][1,4]benzodiazepine]
- IC50: > 3000 nM

Compound: COc1cc(C(=O)N2Cc3ccc(C(=O)N(C)CCN(C)C)n3Cc3ccccc32)ccc1-c1ccccc1C [Example 92, N-[2-(Dimethylamino)ethyl]-10-[(2-methoxy-2′-methyl[1,1′-biphenyl]-4-yl)carbonyl]-N-methyl-10,11-dihydro-5H-pyrrolo[2,1-c][1,4]benzodiazepine-3-carboxamide]
- inhibition at 0.1 µM: 78%

Compound: COc1cccc(-c2cc(OC)c(C(=O)N3Cc4ccc(C(=O)N(C)CCN(C)C)n4Cc4ccccc43)cc2Cl)c1 [Example 87, 10-[(6-Chloro-3,3′-dimethoxy[1,1′-biphenyl]-4-yl)carbonyl]-N-[2-(dimethylamino)ethyl]-N-methyl-10,11-dihydro-5H-pyrrolo[2,1-c][1,4]benzodiazepine-3-carboxamide]
- IC50: 349 nM

Compound: COc1cc(-c2ccccc2C)c(Cl)cc1C(=O)N1Cc2ccc(C(=O)N3CCC(N4CCCC4)CC3)n2Cc2ccccc21 [Example 136, {10-[(6-Chloro-3-methoxy-2′-methyl[1,1′-biphenyl]-4-yl)carbonyl]-10,11-dihydro-5H-pyrrolo[2,1-c][1,4]benzodiazepin-3-yl}[4-(1-pyrrolidinyl)-1-piperidinyl]methanone]
- IC50: 538 nM

Compound: COc1cccc(-c2ccc(C(=O)N3Cc4ccc(C(=O)N(C)CCN(C)C)n4Cc4ccccc43)cc2OC)c1 [Example 95, 10-[(2,3′-Dimethoxy[1,1′-biphenyl]-4-yl)carbonyl]-N-[2-(dimethylamino)ethyl]-N-methyl-10,11-dihydro-5H-pyrrolo[2,1-c][1,4]benzodiazepine-3-carboxamide]
- inhibition at 0.1 µM: 68%

Compound: COc1cc(-c2ccccc2C)c(Cl)cc1C(=O)N1Cc2ccc(C(=O)N3CCN(CCN(C)C)CC3)n2Cc2ccccc21 [Example 197, {10-[(6-Chloro-3-methoxy-2′-methyl[1,1′-biphenyl]-4-yl)carbonyl]-10,11-dihydro-5H-pyrrolo[2,1-c][1,4]benzodiazepin-3-yl}{4-[2-(dimethylamino)ethyl]-1-piperazinyl}methanone]
- IC50: 524 nM

Compound: COc1ccccc1-c1ccc(C(=O)N2Cc3ccc(C(=O)N4CC[C@@H](N(C)C)C4)n3Cc3ccccc32)cc1C [Example 272, [(3R)-3-(Dimethylamino)pyrrolidinyl]{10-[(2′-methoxy-2-methyl[1,1′-biphenyl]-4-yl)carbonyl]-10,11-dihydro-5H-pyrrolo[2,1-c][1,4]benzodiazepin-3-yl}methanone]
- IC50: 301 nM

Compound: COc1ccccc1-c1ccc(C(=O)N2Cc3ccc(C(=O)N(C)CCCN(C)C)n3Cc3ccccc32)cc1C [Example 100, N-[3-(Dimethylamino)propyl]-10-[(2′-methoxy-2-methyl[1,1′-biphenyl]-4-yl)carbonyl]-N-methyl-10,11-dihydro-5H-pyrrolo[2,1-c][1,4]benzodiazepine-3-carboxamide]
- inhibition at 0.1 µM: 27%

Compound: COc1cc(-c2ccccc2C)c(Cl)cc1C(=O)N1Cc2ccc(C(=O)N3CCC(N4CCCCC4)CC3)n2Cc2ccccc21 [Example 110, {10-[(6-Chloro-3-methoxy-2′-methyl[1,1′-biphenyl]-4-yl)carbonyl]-10,11-dihydro-5H-pyrrolo[2,1-c][1,4]benzodiazepin-3-yl}[4-(1-piperidinyl)-1-piperidinyl]methanone]
- IC50: 661 nM

Compound: CN(C)CCN(C)C(=O)c1ccc2n1Cc1ccccc1N(C(=O)c1ccc(-c3cccc4ccccc34)cc1Cl)C2 [Example 96, 10-[2-Chloro-4-(1-naphthyl)benzoyl]-N-[2-(dimethylamino)ethyl]-N-methyl-10,11-dihydro-5H-pyrrolo[2,1-c][1,4]benzodiazepine-3-carboxamide]
- inhibition at 0.1 µM: 10%

Compound: COc1cc(C(=O)N2Cc3ccc(C(=O)N(C)CCN(C)C)n3Cc3ccccc32)ccc1-c1cccc2ccccc12 [Example 93, N-[2-(Dimethylamino)ethyl]-10-[3-methoxy-4-(1-naphthyl)benzoyl]-N-methyl-10,11-dihydro-5H-pyrrolo[2,1-c][1,4]benzodiazepine-3-carboxamide]
- inhibition at 0.1 µM: 29%

Compound: COc1cccc(-c2ccc(C(=O)N3Cc4ccc(C(=O)N5CCC[C@H]5CN5CCCC5)n4Cc4ccccc43)cc2C)c1 [Example 263, {10-[(3′-Methoxy-2-methyl[1,1′-biphenyl]-4-yl)carbonyl]-10,11-dihydro-5H-pyrrolo[2,1-c][1,4]benzodiazepin-3-yl}[(2S)-2-(1-pyrrolidinylmethyl)pyrrolidinyl]methanone]
- IC50: 202 nM

Compound: COc1cccc(-c2ccc(C(=O)N3Cc4ccc(C(=O)N5CC[C@@H](N(C)C)C5)n4Cc4ccccc43)cc2C)c1 [Example 278, [(3R)-3-(Dimethylamino)pyrrolidinyl]{10-[(3′-methoxy-2-methyl[1,1′-biphenyl]-4-yl)carbonyl]-10,11-dihydro-5H-pyrrolo[2,1-c][1,4]benzodiazepin-3-yl}methanone]
- IC50: 303 nM

Compound: COc1cc(-c2ccccc2F)c(Cl)cc1C(=O)N1Cc2cccn2Cc2ccccc21 [Example 18B, 10-{[6-Chloro-3-methoxy-2′-fluoro-[1,1′-biphenyl]-4-yl]carbonyl}-10,11-dihydro-5H-pyrrolo[2,1-c][1,4]benzodiazepine]
- IC50: 386 nM

Compound: Cc1cc(C(=O)N2Cc3ccc(C(=O)N4CCN(CCN(C)C)CC4)n3Cc3ccccc32)ccc1-c1ccccc1C(F)(F)F [Example 196, {4-[2-(Dimethylamino)ethyl]-1-piperazinyl}(10-{[2-methyl-2′-(trifluoromethyl)[1,1′-biphenyl]-4-yl]carbonyl}-10,11-dihydro-5H-pyrrolo[2,1-c][1,4]benzodiazepin-3-yl)methanone]
- IC50: 1240 nM

Compound: COc1ccccc1-c1ccc(C(=O)N2Cc3ccc(C(=O)N(C)CCN(C)C)n3Cc3ccccc32)cc1 [Example 90, N-[2-(Dimethylamino)ethyl]-10-[(2′-methoxy[1,1′-biphenyl]-4-yl)carbonyl]-N-methyl-10,11-dihydro-5H-pyrrolo[2,1-c][1,4]benzodiazepine-3-carboxamide]
- inhibition at 0.1 µM: 63%

Compound: COc1cc(-c2ccccc2C)c(Cl)cc1C(=O)N1Cc2ccc(C(=O)N(C)CCN(C)C)n2Cc2ccccc21 [Example 86, 10-[(6-Chloro-3-methoxy-2′-methyl[1,1′-biphenyl]-4-yl)carbonyl]-N-[2-(dimethylamino)ethyl]-N-methyl-10,11-dihydro-5H-pyrrolo[2,1-c][1,4]benzodiazepine-3-carboxamide]
- IC50: 172 nM

Compound: COc1ccccc1-c1ccc(C(=O)N2Cc3ccc(C(=O)N(C)CCN(C)C)n3Cc3ccccc32)cc1OC [Example 94, 10-[(2,2′-Dimethoxy[1,1′-biphenyl]-4-yl)carbonyl]-N-[2-(dimethylamino)ethyl]-N-methyl-10,11-dihydro-5H-pyrrolo[2,1-c][1,4]benzodiazepine-3-carboxamide]
- inhibition at 0.1 µM: 28%

Compound: COc1cc(-c2ccccc2C)c(Cl)cc1C(=O)N1Cc2ccc(C(=O)N3CCCN(C)CC3)n2Cc2ccccc21 [Example 60, {10-[(6-Chloro-3-methoxy-2′-methyl[1,1′-biphenyl]-4-yl)carbonyl]-10,11-dihydro-5H-pyrrolo[2,1-c][1,4]benzodiazepin-3-yl}(4-methyl-1,4-diazepan-1-yl)methanone]
- IC50: 681 nM

Compound: Cc1cc(C(=O)N2Cc3ccc(C(=O)N4CCC[C@H]4CN4CCCC4)n3Cc3ccccc32)ccc1-c1ccccc1C(F)(F)F [Example 258, (10-{[2-Methyl-2′-(trifluoromethyl)[1,1′-biphenyl]-4-yl]carbonyl}-10,11-dihydro-5H-pyrrolo[2,1-c][1,4]benzodiazepin-3-yl)[(2S)-2-(1-pyrrolidinylmethyl)pyrrolidinyl]methanone]
- IC50: 913 nM

Compound: Cc1cc(C(=O)N2Cc3ccc(C(=O)N4CCCN(C)CC4)n3Cc3ccccc32)ccc1-c1ccccc1C(F)(F)F [Example 59, (4-Methyl-1,4-diazepan-1-yl)(10-{[2-methyl-2′-(trifluoromethyl)[1,1′-biphenyl]-4-yl]carbonyl}-10,11-dihydro-5H-pyrrolo[2,1-c][1,4]benzodiazepin-3-yl)methanone]
- IC50: 1890 nM

Compound: C=CCN1CCN(C(=O)c2ccc3n2Cc2ccccc2N(C(=O)c2cc(Cl)c(-c4ccccc4C)cc2OC)C3)CC1 [Example 219, (4-Allyl-1-piperazinyl){10-[(6-chloro-3-methoxy-2′-methyl[1,1′-biphenyl]-4-yl)carbonyl]-10,11-dihydro-5H-pyrrolo[2,1-c][1,4]benzodiazepin-3-yl}methanone]
- IC50: 1810 nM

Compound: Cc1cc(C(=O)N2Cc3ccc(C(=O)N(C)CCN(C)C)n3Cc3ccccc32)ccc1-c1ccccc1C(F)(F)F [Example 85, N-[2-(Dimethylamino)ethyl]-N-methyl-10-{[2-methyl-2′-(trifluoromethyl)[1,1′-biphenyl]-4-yl]carbonyl}-10,11-dihydro-5H-pyrrolo[2,1-c][1,4]benzodiazepine-3-carboxamide]
- IC50: 788 nM
